In this assay the test system is U2OS cell line stably expressing RFP-eGFP-hLC3b (a tandem reporter cell line). The assay is described as follows: Tandem reporter assay (assay to assess autophagic flux). The class given is cell-based, Human. The following applies: result in words; at different concentrations. The procedure: Selected compounds of this invention were also assessed for their ability to stimulate autophagy using a U2OS cell line stabling expressing RFP-eGFP-hLC3b (a tandem reporter cell line). During the process of autophagy, the cargo to be degraded is first enveloped by organelles called autophagosomes. These autophagosomes then fuse with lysosomes, causing them to become acidified and their digestive enzymes to become activated. The term "autophagic flux" is used to represent the dynamic process of autophagy: autophagic flux refers to the whole process of autophagy, including autophagosome formation, maturation, fusion with lysosomes, subsequent breakdown, and the release of macromolecules back into the cytosol (Zhang XJ, Chen S, Huang KX, Le WD. Why should autophagic flux be assessed? Acta Pharmacol Sin. 2013 May; 34(5): 595-9. doi: 10.1038/aps.2012.184. Epub 2013 Mar 11). Compounds that stimulate autophagic flux stimulate the dynamic process of autophagy (the whole process of autophagy). […] Using a fluorescent microscope, the number of autophagosomes and autolysosomes can be counted, allowing for the monitoring of both the induction of autophagy (total puncta count) and the rate of autophagic flux (ratio of red-only to red-and-green puncta). The influence of small molecules on autophagy induction and flux can be assessed using this system by comparison to a non-treated control. […]
(In general: A reporter such as luciferase makes a cellular process visible.)

Structures can show the parent of a compound that is named as a salt.

From EP4653432A1, “AUTOPHAGY INDUCING COMPOUNDS AND USES THEREOF IN THE PREVENTION OR THERAPY OF DISEASES” (Samsara Therapeutics Inc., priority 2024, dated 2025) come the findings set out here.

Consider `CC(C)c1ccc(-n2cc(C#N)c(-c3nc(C(=O)N(C(C)C)C4CCNCC4)cs3)n2)nc1.Cl` [Compound E, N-isopropyl-N-4-piperidyl-2-[4-cyano-1-(5-isopropyl-2-pyridyl)-3-pyrazolyl]-1,3-thiazole-4-carboxamide hydrochloride], for which the “number of RFP-only puncta (autolysosomes) relative to a DMSO-treated control (non-treated control)” value is “Particularly good results”.
`CC(C)N(C(=O)c1csc(-c2cnc3ccccn23)n1)[C@@H]1CCNC1` [SLN5-X-0978, (R)-2-(imidazo[1,2-a]pyridin-3-yl)-N-Isopropyl-N-(pyrrolidin-3-yl) thiazole-4-carboxamide hydrochloride]: the “number of RFP-only puncta (autolysosomes) relative to a DMSO-treated control (non-treated control)” value is listed as “Particularly good results”.
